# According to publication PMC6199309, “A therapeutic approach to pantothenate kinase associated neurodegeneration” (Nature Communications, 2018):
# Read-outs that look alike come from different tables or passages of the source.
# Tests used:
# [1] = biological target: T1, ABL1(Q252H)-nonphosphorylated (Homo sapiens, UniProt P00519, Q252H); assay: KINOMEscan; type: binding; conditions: read-out: %Ctrl @ 10000nM
# T1 construct: purchased DiscoverX KINOMEscan
# NEK7 = biological target: T2, NEK7 (Homo sapiens, UniProt Q8TDX7); assay: KINOMEscan; type: binding; conditions: read-out: %Ctrl @ 10000nM
# T2 construct: purchased DiscoverX KINOMEscan
# CSNK1G1 = biological target: T3, CSNK1G1 (Homo sapiens, UniProt Q9HCP0); assay: KINOMEscan; type: binding; conditions: read-out: %Ctrl @ 10000nM
# T3 construct: purchased DiscoverX KINOMEscan
# ERK3 = biological target: T4, ERK3 (Homo sapiens, UniProt Q16659); assay: KINOMEscan; type: binding; conditions: read-out: %Ctrl @ 10000nM
# T4 construct: purchased DiscoverX KINOMEscan
# NIK = biological target: T5, NIK (Homo sapiens, UniProt Q99558); assay: KINOMEscan; type: binding; conditions: read-out: %Ctrl @ 10000nM
# T5 construct: purchased DiscoverX KINOMEscan
# T5 sequence (Q99558 whole entry): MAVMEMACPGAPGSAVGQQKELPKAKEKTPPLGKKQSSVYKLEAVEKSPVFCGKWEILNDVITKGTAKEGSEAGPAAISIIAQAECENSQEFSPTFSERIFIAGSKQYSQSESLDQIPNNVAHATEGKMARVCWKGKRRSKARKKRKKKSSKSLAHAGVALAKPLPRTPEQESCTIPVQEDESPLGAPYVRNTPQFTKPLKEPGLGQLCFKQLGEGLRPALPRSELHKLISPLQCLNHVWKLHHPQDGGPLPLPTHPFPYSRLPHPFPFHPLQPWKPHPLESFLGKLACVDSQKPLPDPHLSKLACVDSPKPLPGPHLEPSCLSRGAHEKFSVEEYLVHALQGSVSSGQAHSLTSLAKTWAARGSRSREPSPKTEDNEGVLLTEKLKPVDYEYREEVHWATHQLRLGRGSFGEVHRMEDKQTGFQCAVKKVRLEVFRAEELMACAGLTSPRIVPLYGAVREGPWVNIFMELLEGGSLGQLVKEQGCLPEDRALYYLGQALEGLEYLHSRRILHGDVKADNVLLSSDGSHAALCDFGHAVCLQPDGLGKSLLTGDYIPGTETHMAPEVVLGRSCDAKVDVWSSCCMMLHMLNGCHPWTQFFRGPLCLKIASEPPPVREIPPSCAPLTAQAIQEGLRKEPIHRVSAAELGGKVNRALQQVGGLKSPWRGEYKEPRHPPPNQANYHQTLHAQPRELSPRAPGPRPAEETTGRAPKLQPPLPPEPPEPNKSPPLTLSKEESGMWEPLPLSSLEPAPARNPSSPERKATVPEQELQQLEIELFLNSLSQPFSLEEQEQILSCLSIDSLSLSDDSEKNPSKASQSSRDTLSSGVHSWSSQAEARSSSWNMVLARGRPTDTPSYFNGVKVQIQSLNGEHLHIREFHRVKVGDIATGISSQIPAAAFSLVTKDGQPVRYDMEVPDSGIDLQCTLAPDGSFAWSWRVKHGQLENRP
# KIT(D816V) = biological target: T6, KIT(D816V) (Homo sapiens, UniProt P10721, D816V); assay: KINOMEscan; type: binding; conditions: read-out: %Ctrl @ 10000nM
# T6 construct: purchased DiscoverX KINOMEscan
# CDK5 = biological target: T7, CDK5 (Homo sapiens, UniProt Q00535); assay: KINOMEscan; type: binding; conditions: read-out: %Ctrl @ 10000nM
# T7 construct: purchased DiscoverX KINOMEscan
# [2] = Pharmacokinetics in plasma of male BALB/c mice; type: in vivo; conditions: mouse
# Protocol: Supplementary Table 2. […] Mean pharmacokinetic parameters of PZ- […]
# administration to male BALB/c micea.
# Dose Tmax C0/ Cmaxc AUClast AUCinf T1/2 CL Vss %Fd […]
# aPharmacokinetics measurements performed by Sai Life Sciences Limited. […]
# cBack extrapolated concentration for i.v. group. dBioavailability was calculated based on AUClast.
# ZAP70 = biological target: T8, ZAP70 (Homo sapiens, UniProt P43403); assay: KINOMEscan; type: binding; conditions: read-out: %Ctrl @ 10000nM
# T8 construct: purchased DiscoverX scanMAX; host or cells: E. coli BL21-derived host (T7 phage) or HEK-293
# AMPK-alpha2 = biological target: T9, AMPK-alpha2 (Homo sapiens, UniProt P54646); assay: KINOMEscan; type: binding; conditions: read-out: %Ctrl @ 10000nM
# T9 construct: purchased DiscoverX KINOMEscan
# ACVR2B = biological target: T10, ACVR2B (Homo sapiens, UniProt Q13705); assay: KINOMEscan; type: binding; conditions: read-out: %Ctrl @ 10000nM
# T10 construct: purchased DiscoverX KINOMEscan
# LTK = biological target: T11, LTK (Homo sapiens, UniProt P29376); assay: KINOMEscan; type: binding; conditions: read-out: %Ctrl @ 10000nM
# T11 construct: purchased DiscoverX KINOMEscan
# T11 sequence (P29376 17-864): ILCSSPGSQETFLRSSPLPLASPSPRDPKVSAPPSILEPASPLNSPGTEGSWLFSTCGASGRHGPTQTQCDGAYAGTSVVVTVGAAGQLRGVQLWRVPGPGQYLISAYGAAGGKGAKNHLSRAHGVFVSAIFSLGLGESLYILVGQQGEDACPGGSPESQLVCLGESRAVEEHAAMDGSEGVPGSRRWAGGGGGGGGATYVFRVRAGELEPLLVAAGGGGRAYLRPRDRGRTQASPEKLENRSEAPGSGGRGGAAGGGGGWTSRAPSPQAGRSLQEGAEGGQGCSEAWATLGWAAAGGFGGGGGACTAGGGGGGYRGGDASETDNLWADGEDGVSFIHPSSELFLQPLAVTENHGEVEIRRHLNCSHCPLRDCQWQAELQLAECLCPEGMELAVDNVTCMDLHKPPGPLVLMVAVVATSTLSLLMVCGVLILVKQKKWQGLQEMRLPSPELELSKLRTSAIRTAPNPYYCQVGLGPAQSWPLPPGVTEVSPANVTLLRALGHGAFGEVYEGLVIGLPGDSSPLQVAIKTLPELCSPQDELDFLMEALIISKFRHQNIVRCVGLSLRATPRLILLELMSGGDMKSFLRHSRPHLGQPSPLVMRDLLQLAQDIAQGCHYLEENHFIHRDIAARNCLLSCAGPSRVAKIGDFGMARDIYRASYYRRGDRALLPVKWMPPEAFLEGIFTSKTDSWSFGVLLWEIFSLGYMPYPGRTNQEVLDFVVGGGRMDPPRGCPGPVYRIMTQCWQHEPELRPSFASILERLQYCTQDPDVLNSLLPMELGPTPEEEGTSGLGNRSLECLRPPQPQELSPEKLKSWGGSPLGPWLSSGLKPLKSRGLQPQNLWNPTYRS
# PIM1 = biological target: T12, PIM1 (Homo sapiens, UniProt P11309); assay: KINOMEscan; type: binding; conditions: read-out: %Ctrl @ 10000nM
# T12 construct: purchased DiscoverX KINOMEscan
# TLK1 = biological target: T13, TLK1 (Homo sapiens, UniProt Q9UKI8); assay: KINOMEscan; type: binding; conditions: read-out: %Ctrl @ 10000nM
# T13 construct: purchased DiscoverX KINOMEscan
# BUB1 = biological target: T14, BUB1 (Homo sapiens, UniProt O43683); assay: KINOMEscan; type: binding; conditions: read-out: %Ctrl @ 10000nM
# T14 construct: purchased DiscoverX KINOMEscan
# MEK6 = biological target: T15, MEK6 (Homo sapiens, UniProt P52564); assay: KINOMEscan; type: binding; conditions: read-out: %Ctrl @ 10000nM
# T15 construct: purchased DiscoverX KINOMEscan
# T15 sequence (P52564 whole entry): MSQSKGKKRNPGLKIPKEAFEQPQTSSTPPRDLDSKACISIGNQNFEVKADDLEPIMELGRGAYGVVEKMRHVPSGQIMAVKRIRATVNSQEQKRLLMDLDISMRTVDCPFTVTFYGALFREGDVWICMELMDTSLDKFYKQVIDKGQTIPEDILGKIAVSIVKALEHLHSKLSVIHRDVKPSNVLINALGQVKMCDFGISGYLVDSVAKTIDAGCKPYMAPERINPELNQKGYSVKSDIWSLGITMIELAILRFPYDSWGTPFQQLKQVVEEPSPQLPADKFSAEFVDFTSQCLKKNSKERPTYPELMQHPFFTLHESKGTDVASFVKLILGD
# PIM3 = biological target: T16, PIM3 (Homo sapiens, UniProt Q86V86); assay: KINOMEscan; type: binding; conditions: read-out: %Ctrl @ 10000nM
# T16 construct: purchased DiscoverX KINOMEscan
# JNK1 = biological target: T17, JNK1 (Homo sapiens, UniProt P45983); assay: KINOMEscan; type: binding; conditions: read-out: %Ctrl @ 10000nM
# T17 construct: purchased DiscoverX KINOMEscan
# PIKFYVE = biological target: T18, PIKFYVE (Homo sapiens, UniProt Q9Y2I7); assay: KINOMEscan; type: binding; conditions: read-out: %Ctrl @ 10000nM
# T18 construct: purchased DiscoverX KINOMEscan
# JNK3 = biological target: T19, JNK3 (Homo sapiens, UniProt P53779); assay: KINOMEscan; type: binding; conditions: read-out: %Ctrl @ 10000nM
# T19 construct: purchased DiscoverX KINOMEscan
# MEK3 = biological target: T20, MEK3 (Homo sapiens, UniProt P46734); assay: KINOMEscan; type: binding; conditions: read-out: %Ctrl @ 10000nM
# T20 construct: purchased DiscoverX KINOMEscan
# FGFR4 = biological target: T21, FGFR4 (Homo sapiens, UniProt P22455); assay: KINOMEscan; type: binding; conditions: read-out: %Ctrl @ 10000nM
# T21 construct: purchased DiscoverX KINOMEscan
# T21 sequence (P22455 22-802): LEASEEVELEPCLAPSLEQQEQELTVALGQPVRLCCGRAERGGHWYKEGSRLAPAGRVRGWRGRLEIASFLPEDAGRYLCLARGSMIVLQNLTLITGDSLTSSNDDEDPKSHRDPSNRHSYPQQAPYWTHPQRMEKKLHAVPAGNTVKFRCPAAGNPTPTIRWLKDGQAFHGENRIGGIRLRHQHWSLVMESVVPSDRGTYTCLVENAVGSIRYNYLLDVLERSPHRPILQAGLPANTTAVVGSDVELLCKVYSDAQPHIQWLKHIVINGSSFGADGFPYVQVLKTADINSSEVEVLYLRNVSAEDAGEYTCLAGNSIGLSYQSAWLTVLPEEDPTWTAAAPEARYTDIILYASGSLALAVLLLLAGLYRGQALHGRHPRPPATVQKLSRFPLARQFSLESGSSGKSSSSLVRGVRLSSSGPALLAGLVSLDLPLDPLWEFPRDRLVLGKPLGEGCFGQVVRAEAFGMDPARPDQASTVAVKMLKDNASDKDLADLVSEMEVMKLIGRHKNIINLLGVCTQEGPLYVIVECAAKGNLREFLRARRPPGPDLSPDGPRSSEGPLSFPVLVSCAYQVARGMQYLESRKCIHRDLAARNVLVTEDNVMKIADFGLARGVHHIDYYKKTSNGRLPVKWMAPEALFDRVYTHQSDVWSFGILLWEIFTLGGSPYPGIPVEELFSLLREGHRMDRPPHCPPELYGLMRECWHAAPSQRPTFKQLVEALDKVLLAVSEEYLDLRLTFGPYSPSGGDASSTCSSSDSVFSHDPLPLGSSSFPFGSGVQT
# BRSK2 = biological target: T22, BRSK2 (Homo sapiens, UniProt Q8IWQ3); assay: KINOMEscan; type: binding; conditions: read-out: %Ctrl @ 10000nM
# T22 construct: purchased DiscoverX KINOMEscan
# NDR1 = biological target: T23, NDR1 (Homo sapiens, UniProt Q15208); assay: KINOMEscan; type: binding; conditions: read-out: %Ctrl @ 10000nM
# T23 construct: purchased DiscoverX KINOMEscan
# T23 sequence (Q15208 whole entry): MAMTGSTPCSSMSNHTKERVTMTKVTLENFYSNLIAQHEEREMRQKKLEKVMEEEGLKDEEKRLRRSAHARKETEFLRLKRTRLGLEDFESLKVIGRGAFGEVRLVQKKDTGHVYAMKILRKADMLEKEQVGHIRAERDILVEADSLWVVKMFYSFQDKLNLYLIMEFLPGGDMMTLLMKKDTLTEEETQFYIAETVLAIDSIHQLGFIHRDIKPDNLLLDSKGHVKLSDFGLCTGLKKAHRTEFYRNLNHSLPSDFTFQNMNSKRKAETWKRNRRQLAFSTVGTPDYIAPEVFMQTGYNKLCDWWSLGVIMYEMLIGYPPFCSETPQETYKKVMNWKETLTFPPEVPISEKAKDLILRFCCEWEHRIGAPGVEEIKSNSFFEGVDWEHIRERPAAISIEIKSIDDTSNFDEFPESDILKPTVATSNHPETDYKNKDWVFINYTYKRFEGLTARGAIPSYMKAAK
# PFCDPK1(P.falciparum) = biological target: T24, PFCDPK1(P.falciparum) (Plasmodium falciparum, UniProt P62344); assay: KINOMEscan; type: binding; conditions: read-out: %Ctrl @ 10000nM
# T24 construct: purchased DiscoverX KINOMEscan
# PIK3CA(H1047L) = biological target: T25, PIK3CA(H1047L) (Homo sapiens, UniProt P42336, H1047L); assay: KINOMEscan; type: binding; conditions: read-out: %Ctrl @ 10000nM
# T25 construct: purchased DiscoverX KINOMEscan
# SGK3 = biological target: T26, SGK3 (Homo sapiens, UniProt Q96BR1); assay: KINOMEscan; type: binding; conditions: read-out: %Ctrl @ 10000nM
# T26 construct: purchased DiscoverX KINOMEscan
# PIK3CB = biological target: T27, PIK3CB (Homo sapiens, UniProt P42338); assay: KINOMEscan; type: binding; conditions: read-out: %Ctrl @ 10000nM
# T27 construct: purchased DiscoverX KINOMEscan
# MST3 = biological target: T28, MST3 (Homo sapiens, UniProt Q9Y6E0); assay: KINOMEscan; type: binding; conditions: read-out: %Ctrl @ 10000nM
# T28 construct: purchased DiscoverX KINOMEscan
# T28 sequence (Q9Y6E0 whole entry): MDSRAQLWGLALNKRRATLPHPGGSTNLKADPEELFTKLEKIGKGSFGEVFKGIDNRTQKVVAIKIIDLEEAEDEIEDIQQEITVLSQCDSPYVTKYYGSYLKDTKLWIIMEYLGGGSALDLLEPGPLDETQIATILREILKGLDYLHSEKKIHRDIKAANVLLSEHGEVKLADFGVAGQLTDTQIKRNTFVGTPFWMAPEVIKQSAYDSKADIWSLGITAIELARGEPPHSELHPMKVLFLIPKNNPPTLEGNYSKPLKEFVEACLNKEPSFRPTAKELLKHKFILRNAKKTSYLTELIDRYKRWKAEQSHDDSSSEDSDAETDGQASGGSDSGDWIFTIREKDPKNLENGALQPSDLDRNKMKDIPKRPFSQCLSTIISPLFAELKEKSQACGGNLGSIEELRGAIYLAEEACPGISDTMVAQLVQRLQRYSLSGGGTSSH
# RIPK5 = biological target: T29, RIPK5 (Homo sapiens, UniProt Q6XUX3); assay: KINOMEscan; type: binding; conditions: read-out: %Ctrl @ 10000nM
# T29 construct: purchased DiscoverX KINOMEscan
# IKK-beta = biological target: T30, IKK-beta (Homo sapiens, UniProt O14920); assay: KINOMEscan; type: binding; conditions: read-out: %Ctrl @ 10000nM
# T30 construct: purchased DiscoverX KINOMEscan
# T30 sequence (O14920 whole entry): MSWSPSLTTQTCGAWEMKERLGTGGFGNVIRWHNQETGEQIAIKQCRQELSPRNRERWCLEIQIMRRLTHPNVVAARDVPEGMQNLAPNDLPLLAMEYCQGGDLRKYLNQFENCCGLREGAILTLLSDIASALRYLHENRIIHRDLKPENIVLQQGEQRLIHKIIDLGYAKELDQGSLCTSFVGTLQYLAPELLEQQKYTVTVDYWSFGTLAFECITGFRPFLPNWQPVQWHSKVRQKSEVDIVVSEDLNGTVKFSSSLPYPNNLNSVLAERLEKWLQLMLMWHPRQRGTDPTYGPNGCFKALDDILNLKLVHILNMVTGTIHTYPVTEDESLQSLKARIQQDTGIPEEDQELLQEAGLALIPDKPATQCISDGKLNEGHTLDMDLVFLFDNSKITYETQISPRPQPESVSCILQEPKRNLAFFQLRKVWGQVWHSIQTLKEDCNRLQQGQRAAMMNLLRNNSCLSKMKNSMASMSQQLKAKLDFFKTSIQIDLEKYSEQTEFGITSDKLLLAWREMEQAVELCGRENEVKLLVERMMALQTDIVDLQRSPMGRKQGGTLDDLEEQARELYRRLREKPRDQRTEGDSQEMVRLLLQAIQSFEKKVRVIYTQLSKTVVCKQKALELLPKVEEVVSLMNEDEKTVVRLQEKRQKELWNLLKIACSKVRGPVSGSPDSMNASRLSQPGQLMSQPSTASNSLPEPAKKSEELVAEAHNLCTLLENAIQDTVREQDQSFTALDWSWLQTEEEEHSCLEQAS
# CAMK2A = biological target: T31, CAMK2A (Homo sapiens, UniProt Q9UQM7); assay: KINOMEscan; type: binding; conditions: read-out: %Ctrl @ 10000nM
# T31 construct: purchased DiscoverX KINOMEscan
# INSR = biological target: T32, INSR (Homo sapiens, UniProt P06213); assay: KINOMEscan; type: binding; conditions: read-out: %Ctrl @ 10000nM
# T32 construct: purchased DiscoverX KINOMEscan
# DMPK2 = biological target: T33, DMPK2 (Homo sapiens, UniProt Q6DT37); assay: KINOMEscan; type: binding; conditions: read-out: %Ctrl @ 10000nM
# T33 construct: purchased DiscoverX KINOMEscan
# CDK4-cyclinD1 = biological target: T34, CDK4-cyclinD1 (Homo sapiens, UniProt P11802); assay: KINOMEscan; type: binding; conditions: read-out: %Ctrl @ 10000nM
# T34 construct: purchased DiscoverX KINOMEscan
# MET(M1250T) = biological target: T35, MET(M1250T) (Homo sapiens, UniProt P08581, M1250T); assay: KINOMEscan; type: binding; conditions: read-out: %Ctrl @ 10000nM
# T35 construct: purchased DiscoverX KINOMEscan
# MKK7 = biological target: T36, MKK7 (Homo sapiens, UniProt O14733); assay: KINOMEscan; type: binding; conditions: read-out: %Ctrl @ 10000nM
# T36 construct: purchased DiscoverX KINOMEscan
# T36 sequence (O14733 whole entry): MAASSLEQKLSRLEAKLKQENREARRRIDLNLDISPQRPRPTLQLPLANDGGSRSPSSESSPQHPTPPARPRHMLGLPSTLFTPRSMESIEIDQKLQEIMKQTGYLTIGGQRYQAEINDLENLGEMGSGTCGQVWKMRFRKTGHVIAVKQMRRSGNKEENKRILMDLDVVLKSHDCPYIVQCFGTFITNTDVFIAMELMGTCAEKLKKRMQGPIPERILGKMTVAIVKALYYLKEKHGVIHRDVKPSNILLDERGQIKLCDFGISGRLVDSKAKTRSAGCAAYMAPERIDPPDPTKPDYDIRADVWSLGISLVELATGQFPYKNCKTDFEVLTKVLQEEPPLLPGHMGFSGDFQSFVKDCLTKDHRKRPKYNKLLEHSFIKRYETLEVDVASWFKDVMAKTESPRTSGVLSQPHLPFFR
# MYLK = biological target: T37, MYLK (Homo sapiens, UniProt Q15746); assay: KINOMEscan; type: binding; conditions: read-out: %Ctrl @ 10000nM
# T37 construct: purchased DiscoverX KINOMEscan
# ERBB2 = biological target: T38, ERBB2 (Homo sapiens, UniProt P04626); assay: KINOMEscan; type: binding; conditions: read-out: %Ctrl @ 10000nM
# T38 construct: purchased DiscoverX KINOMEscan
smiles,measurement,setting,value
"CC(C)c1ccc(CC(=O)N2CCN(c3ccc(C#N)nn3)CC2)cc1 [PZ-2891, 6-(4-(2-(4-isopropylphenyl)acetyl)piperazin-1-yl)pyridazine-3-carbonitrile]",remaining binding at 10 µM,[1],97%
same,remaining binding at 10 µM,NEK7,75%
same,remaining binding at 10 µM,CSNK1G1,92%
same,remaining binding at 10 µM,ERK3,97%
same,remaining binding at 10 µM,NIK,100%
same,remaining binding at 10 µM,KIT(D816V),92%
same,remaining binding at 10 µM,CDK5,87%
same,half-life,"[2]; intravenous, 2 mg/kg, mice plasma, read-out: T1/2 (mice plasma)",17 min
same,AUC(0-inf),"[2]; plasma, iv, i.v. 2 mg/kg",611 ng·h/mL
same,AUC(0-t),"[2]; plasma, iv, i.v. 2 mg/kg",609 ng·h/mL
same,clearance,"[2]; plasma, iv, i.v. 2 mg/kg",54.5 mL/min/kg
same,C0,"[2]; plasma, iv, i.v. 2 mg/kg, back extrapolated concentration",2810 ng/mL
same,half-life,"[2]; plasma, iv, i.v. 2 mg/kg, read-out: T1/2 (converted)",16.8 min
same,Vd,"[2]; plasma, iv, i.v. 2 mg/kg, read-out: Vss",0.94 L/kg
same,AUC(0-inf),"[2]; plasma, po, p.o. 10 mg/kg",1420 ng·h/mL
same,AUC(0-t),"[2]; plasma, po, p.o. 10 mg/kg",1400 ng·h/mL
same,Cmax,"[2]; plasma, po, p.o. 10 mg/kg",1890 ng/mL
same,Tmax,"[2]; plasma, po, p.o. 10 mg/kg",15 min
same,remaining binding at 10 µM,ZAP70,96%
same,remaining binding at 10 µM,AMPK-alpha2,100%
same,remaining binding at 10 µM,ACVR2B,100%
same,remaining binding at 10 µM,LTK,75%
same,remaining binding at 10 µM,PIM1,93%
same,remaining binding at 10 µM,TLK1,72%
same,remaining binding at 10 µM,BUB1,100%
same,remaining binding at 10 µM,MEK6,94%
same,remaining binding at 10 µM,PIM3,58%
same,remaining binding at 10 µM,JNK1,62%
same,remaining binding at 10 µM,PIKFYVE,72%
same,remaining binding at 10 µM,JNK3,88%
same,remaining binding at 10 µM,MEK3,61%
same,remaining binding at 10 µM,FGFR4,73%
same,remaining binding at 10 µM,BRSK2,81%
same,remaining binding at 10 µM,NDR1,75%
same,remaining binding at 10 µM,PFCDPK1(P.falciparum),97%
same,remaining binding at 10 µM,PIK3CA(H1047L),69%
same,remaining binding at 10 µM,SGK3,71%
same,remaining binding at 10 µM,PIK3CB,65%
same,remaining binding at 10 µM,MST3,73%
same,remaining binding at 10 µM,RIPK5,77%
same,remaining binding at 10 µM,IKK-beta,100%
same,remaining binding at 10 µM,CAMK2A,98%
same,remaining binding at 10 µM,INSR,84%
same,remaining binding at 10 µM,DMPK2,93%
same,remaining binding at 10 µM,CDK4-cyclinD1,100%
same,remaining binding at 10 µM,MET(M1250T),98%
same,remaining binding at 10 µM,MKK7,84%
same,remaining binding at 10 µM,MYLK,75%
same,remaining binding at 10 µM,ERBB2,92%
